Source: article PMC9710212 (Chemical Science, 2022)
Peptide text beside a SMILES is read from it. * marks the point of attachment. Cbz = O=C(OCc1ccccc1)*

Experiments:
PARP16 [1] = conditions: cited from earlier work
PARP16 [2] = biological target: T1, PARP16 (Homo sapiens, UniProt Q8N5Y8); assay: Nutrient starvation; format: cell-based; conditions: HAP1 WT, HBSS 16 h; for effect on PARP16 levels under amino acid and serum starvation: 10 μM MG132, 1 μM bafilomycin A1, 50 μM chloroquine
T1 sequence (Q8N5Y8 1-322): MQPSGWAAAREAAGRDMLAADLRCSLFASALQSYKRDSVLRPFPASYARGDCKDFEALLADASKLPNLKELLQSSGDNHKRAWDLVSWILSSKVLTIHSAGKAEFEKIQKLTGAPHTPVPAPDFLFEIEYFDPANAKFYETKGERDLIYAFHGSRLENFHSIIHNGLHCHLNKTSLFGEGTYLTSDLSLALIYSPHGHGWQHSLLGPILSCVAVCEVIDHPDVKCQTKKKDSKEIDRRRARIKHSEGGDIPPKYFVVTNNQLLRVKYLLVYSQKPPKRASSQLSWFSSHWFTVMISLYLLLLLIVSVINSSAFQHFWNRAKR

SUMO-PARP16ΔTM = biological target: T2, SUMO-PARP16ΔTM (Homo sapiens, UniProt Q8N5Y8); assay: Whole-protein electrospray ionization; format: binding; conditions: 50- or 100-fold excess of HJ-52
T2 sequence (Q8N5Y8 1-287 limits assumed): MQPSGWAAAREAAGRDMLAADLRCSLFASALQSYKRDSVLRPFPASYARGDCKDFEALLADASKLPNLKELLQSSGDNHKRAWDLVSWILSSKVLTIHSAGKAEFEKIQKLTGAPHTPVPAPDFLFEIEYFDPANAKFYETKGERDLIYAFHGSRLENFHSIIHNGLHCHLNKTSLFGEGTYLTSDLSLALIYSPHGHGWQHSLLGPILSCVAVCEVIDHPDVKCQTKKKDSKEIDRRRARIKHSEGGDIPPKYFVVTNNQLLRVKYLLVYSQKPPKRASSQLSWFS

PARP1 [3] = biological target: T3, PARP1 (Homo sapiens, UniProt P09874); assay: Cellular PARylation assay in HEK 293T cells; format: cell-based
PARP1 [4] = biological target: T3, PARP1; assay: PASTA biochemical plate assay
PARP16ΔTM = biological target: T4, PARP16ΔTM (Homo sapiens, UniProt Q8N5Y8); assay: in vitro MARylation assay; format: biochemical
T4 sequence (Q8N5Y8 1-287 limits assumed): T2 sequence (Q8N5Y8 1-287 limits assumed)

PARP16 [5] = biological target: T1, PARP16; assay: In vitro competition assay of DB008 labeling; format: binding; conditions: 1 μM competitor, 40 min, then DB008 20 min

T3 sequence (P09874 whole entry): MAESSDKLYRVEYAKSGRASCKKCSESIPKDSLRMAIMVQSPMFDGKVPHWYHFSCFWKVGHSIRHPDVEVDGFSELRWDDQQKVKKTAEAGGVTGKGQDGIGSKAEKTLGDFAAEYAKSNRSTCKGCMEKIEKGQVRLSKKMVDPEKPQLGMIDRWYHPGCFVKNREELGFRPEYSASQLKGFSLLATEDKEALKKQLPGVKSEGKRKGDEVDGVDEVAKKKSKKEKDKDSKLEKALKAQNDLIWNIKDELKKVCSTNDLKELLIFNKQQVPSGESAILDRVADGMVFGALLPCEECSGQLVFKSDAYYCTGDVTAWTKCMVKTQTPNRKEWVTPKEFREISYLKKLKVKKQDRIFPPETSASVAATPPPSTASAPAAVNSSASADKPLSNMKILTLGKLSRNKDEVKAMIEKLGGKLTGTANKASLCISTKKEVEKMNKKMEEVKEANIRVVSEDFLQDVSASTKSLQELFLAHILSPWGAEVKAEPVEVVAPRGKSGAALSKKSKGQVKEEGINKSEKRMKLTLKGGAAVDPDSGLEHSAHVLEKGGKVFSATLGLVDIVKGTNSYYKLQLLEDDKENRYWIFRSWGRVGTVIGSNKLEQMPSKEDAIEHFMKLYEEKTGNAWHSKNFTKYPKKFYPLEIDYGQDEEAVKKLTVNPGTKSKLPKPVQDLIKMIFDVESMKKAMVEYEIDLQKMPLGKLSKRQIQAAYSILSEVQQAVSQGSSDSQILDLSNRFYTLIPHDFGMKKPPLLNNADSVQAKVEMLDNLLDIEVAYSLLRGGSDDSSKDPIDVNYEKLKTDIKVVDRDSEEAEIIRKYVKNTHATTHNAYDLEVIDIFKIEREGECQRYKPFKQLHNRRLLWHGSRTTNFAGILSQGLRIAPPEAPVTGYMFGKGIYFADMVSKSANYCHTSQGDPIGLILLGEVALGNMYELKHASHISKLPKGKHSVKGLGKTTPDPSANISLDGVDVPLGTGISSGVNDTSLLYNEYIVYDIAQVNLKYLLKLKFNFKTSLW

With `CCN(CC)CCCC(C)Nc1ccnc2cc(Cl)ccc12` (centres unmarked) [chloroquine] the “effect on PARP16 levels under amino acid and serum starvation” value (PARP16 [2]) was “did not impact PARP16 levels”.

In the case of `CO/C1=C\C(C)=C\[C@@H](C)[C@@H](O)[C@@H](C)C/C(C)=C/C=C/[C@H](OC)[C@@H]([C@@H](C)[C@@H](O)[C@H](C)[C@@]2(O)C[C@@H](O)[C@H](C)[C@@H](C(C)C)O2)OC1=O` [bafilomycin A1], the “effect on PARP16 levels under amino acid and serum starvation” value (PARP16 [2]) is reported as “did not impact PARP16 levels”.

With `C=CC(=O)N1CCN(C(=O)c2cc(Cc3n[nH]c(=O)c4ccccc34)ccc2F)CC1` [HJ-52, 4-(3-(4-acryloylpiperazine-1-carbonyl)-4-fluorobenzyl)phthalazin-1(2H)-one] the “covalent complex formation with SUMO-PARP16ΔTM” value (SUMO-PARP16ΔTM) was 1 : 1 covalent complex, the “potency against PARP1 in cellular PARylation assay” value (PARP1 [3]) was “low nanomolar potency” and the IC50 (PARP1 [4]) was 0.019 µM. The “potency against PARP1 relative to olaparib” value (PARP1 [4]) was “equipotent”, the IC50 (PARP16ΔTM) was 1.18 µM and the “fold more potent against PARP16 than olaparib” value (PARP16ΔTM) was “about 2.5 fold”.

With `Cn1ncnc1[C@H]1c2n[nH]c(=O)c3cc(F)cc(c23)N[C@@H]1c1ccc(F)cc1` [talazoparib] the “competition of DB008 labeling” value (PARP16 [5]) was ~70%, the “effect on PARP16 levels in RIPA-soluble fraction” value (PARP16 [2]) was “increased, dose dependently” and the “effect on starvation-induced increase of PARP16 in RIPA-insoluble fraction” value (PARP16 [2]) was “counteracted in a dose-dependent manner”. The “inhibition of recombinant PARP16” value (PARP16 [1]) was “sub-micromolar potency”.

For `CC(C)C[C@@H](C=O)NC(=O)[C@H](CC(C)C)NC(=O)[C@H](CC(C)C)NC(=O)OCc1ccccc1` [MG132] (Cbz-Leu-Leu-Leu-aldehyde), the “effect on PARP16 levels under amino acid and serum starvation” value (PARP16 [2]) was “did not impact PARP16 levels”.
